Assay [1] has as its target Human recombinant PDE4 (Genbank accession no NM—006203) (Homo sapiens, UniProt Q08499). The assay is described as follows: PDE4 Assay (SPA, cleavage of cAMP). Format: biochemical. As to the method:
Human recombinant PDE4 (Genbank accession no NM_006203) was incubated for 1 hour, with the test compound at concentrations up to 10 μM, with cAMP (1×10^-5M), and with a low amount (0.021 MBq) of radioactively labelled cAMP. At the end of the incubation, the cleavage of the substrate was evaluated by the binding of the AMP product to SPA beads, which generate […] when bound to the radioactive tracer. The AMP product inhibited the binding of the radioactive tracer to the beads, and the luminescent signal was competed. The results were calculated as the molar concentrations resulting in 50% inhibition of the substrate cleavage compared to controls samples, and are expressed as IC50 (M).

Assay [2] deals with TNF-α release from human peripheral blood mononuclear cells (PBMC). The experiment in a line: TNF-α Release in LPS stimulated PBMC. Format: cell-based. Conditions: 30 minutes pre-incubation, stimulated 18 hours with lipopolysaccharide, TNF-α in supernatant by enzyme immunoassay. As to the method: Human peripheral blood mononuclear cells (PBMC) were isolated from buffy coats. The blood is mixed with saline at a ratio of 1:1, and the PBMC were isolated using Lymphoprep Tubes™ (Nycomed, Norway). The PBMC were suspended in RPMI1640 with 2% foetal calf serum (FCS), pen/strep and 2 mM L-glutamine at a concentration of […]. The cells were pre-incubated for 30 minutes with the test compounds in 96 well tissue culture plates and stimulated for 18 hours with lipopolysaccharide […] (Sigma). The level of TNF-α was measured in the culture supernatant by enzyme immunoassays using primary and secondary biotinylated antibodies from R&D systems. Results are expressed as IC50 values calculated from inhibition curves using as positive controls the secretion in LPS stimulated wells and as negative controls the secretion in unstimulated cells.

[3] abbreviates: human recombinant PDE4, 1 hour incubation, cAMP 1×10^-5M, test compound up to 10 μM, read-out: IC50 (PDE4).

Like-named read-outs stand apart in the source and are kept apart here.

Human recombinant PDE4 (Genbank accession no NM—006203), sequence (Q08499 1-673 isoform Q08499-2): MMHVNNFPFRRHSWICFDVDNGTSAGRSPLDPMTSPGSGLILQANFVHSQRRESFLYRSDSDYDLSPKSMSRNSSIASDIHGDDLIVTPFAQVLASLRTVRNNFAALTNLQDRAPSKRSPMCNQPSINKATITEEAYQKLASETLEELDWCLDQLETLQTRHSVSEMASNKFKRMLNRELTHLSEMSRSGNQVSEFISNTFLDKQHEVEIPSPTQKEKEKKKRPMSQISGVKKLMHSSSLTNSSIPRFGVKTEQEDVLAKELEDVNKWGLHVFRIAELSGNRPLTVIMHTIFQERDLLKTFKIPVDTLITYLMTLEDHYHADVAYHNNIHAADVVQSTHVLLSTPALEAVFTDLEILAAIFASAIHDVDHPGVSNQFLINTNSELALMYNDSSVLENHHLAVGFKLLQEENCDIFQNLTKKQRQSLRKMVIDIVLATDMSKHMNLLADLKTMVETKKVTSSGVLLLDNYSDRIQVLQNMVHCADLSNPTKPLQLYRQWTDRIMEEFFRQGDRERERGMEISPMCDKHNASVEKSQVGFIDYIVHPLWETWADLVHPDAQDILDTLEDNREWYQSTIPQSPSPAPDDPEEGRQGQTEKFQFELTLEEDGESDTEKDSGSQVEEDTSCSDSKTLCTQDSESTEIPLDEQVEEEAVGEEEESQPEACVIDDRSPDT

On to `COc1ccc(C(=O)Cc2c(Cl)cncc2Cl)c2c1OC1(CCN(C(C)=O)CC1)O2` [Compound 108, 2-(3,5-Dichloropyridine-4-yl)-1-(7-methoxy-1′-acetyl-spiro[1,3-benzodioxole-2,4′-piperidine]-4-yl)ethanone], for which the IC50 – broadly, the concentration at which inhibition is half-maximal – in assay [1] came out at 0.22 µM; in assay [2], 0.167 µM.
For `COc1ccc(C(=O)Cc2c(Cl)cccc2Cl)c2c1OC1(CCSCC1)O2` [Compound 119, 2-(2,6-Dichloro-phenyl)-1-(7-methoxy-2′,3′,5′,6′-tetrahydro-spiro[1,3-benzo-dioxole-2,4′-(4H)-thiopyran]-4-yl)ethanone], the IC50 in assay [1] (setting [3]) is 0.071 µM; in assay [2], 0.508 µM.
Consider `COc1ccc(C(=O)Cc2c(Cl)cncc2Cl)c2c1OC1(CCN(S(C)(=O)=O)CC1)O2` [Compound 107, 2-(3,5-Dichloropyridine-4-yl)-1-(7-methoxy-1′-[methylsulfonyl]-spiro[1,3-benzodioxole-2,4′-piperidine]-4-yl)ethanone], for which the IC50 amounted to 0.59 µM in assay [1] (setting [3]) and 0.91 µM in assay [2].
With `COc1ccc(C(=O)Cc2c(Cl)cncc2Cl)c2c1OC1(CCNCC1)O2` [Compound 105, 2-(3,5-Dichloropyridine-4-yl)-1-(7-methoxy-spiro[1,3-benzodioxole-2,4′-piperidine]-4-yl)ethanone], the IC50 was found to be 0.31 µM in assay [1] and 0.8 µM in assay [2].
Regarding `COc1ccc(C(=O)Cc2ccccc2Cl)c2c1OC1(CCSCC1)O2` [Compound 120, 2-(2-chloro-phenyl)-1-(7-methoxy-2′,3′,5′,6′-tetrahydro-spiro[1,3-benzo-dioxole-2,4′-(4H)-thiopyran]-4-yl)ethanone], the results for the IC50 in assay [1] (setting [3]) and in assay [2] were 0.31 µM and 1.25 µM, respectively.
For `COc1ccc(C(=O)Cc2c(Cl)c[n+]([O-])cc2Cl)c2c1OCC1(COC1)CO2` [Compound 122, 2-(3,5-Dichloro-1-oxido-pyridin-4-yl)-1-{9-methoxy-spiro[2H-1,5-benzodioxepin-3(4H),3′-oxetane]-6-yl}ethanone] the same measures were 0.05 µM and 0.02 µM.
For `COc1ccc(C(=O)Cc2c(Cl)cncc2Cl)c2c1OCC1(CO2)CSCSC1` [Compound 132, 2-(3,5-Dichloropyridin-4-yl)-1-{9-methoxy-spiro[2H-1,5-benzodioxepin-3(4H),5′-[1,3]dithiane]-6-yl}ethanone], the IC50 in assay [1] (setting [3]) was 0.026 µM; in assay [2], 0.029 µM.
For `COc1ccc(C(=O)Cc2c(Cl)cncc2Cl)c2c1OCC1(CO2)OCCO1` [Compound 126, 2-(3,5-Dichloropyridin-4-yl)-1-{9-methoxy-spiro[2H-1,5-benzodioxepin-3(4H),2′-(1,3-dioxolane)]-6-yl}ethanone] the same measures were 0.067 µM and 0.111 µM.
For `COc1ccc(C(=O)Cc2c(Cl)c[n+]([O-])cc2Cl)c2c1OC1(CCOCC1)O2` [Compound 103, 2-(3,5-Dichloro-1-oxido-pyridine-4-yl)-1-(7-methoxy-2′,5′,6′-tetrahydro-spiro[1,3-benzodioxole-2,4′-(4H)-pyran]-4-yl)ethanone] the same measures were 0.026 µM and 0.023 µM.
As to `COc1ccc(C(=O)Cc2c(Cl)cncc2Cl)c2c1OCC1(COC1)CO2` [Compound 121, 2-(3,5-Dichloropyridin-4-yl)-1-{9-methoxy-spiro[2H-1,5-benzodioxepin-3(4H),3′-oxetane]-6-yl}ethanone], the IC50 in assay [1] (setting [3]) is 0.052 µM; in assay [2], 0.064 µM.
In the same order, the values of `COc1ccc(C(=O)Cc2ccncc2Br)c2c1OC1(CCSCC1)O2` [Compound 114, 2-(3-bromopyridine-4-yl)-1-(7-methoxy-2′,3′,5′,6′-tetrahydro-spiro[1,3-benzodioxole-2,4′-(4H)-thiopyran]-4-yl)ethanone] are 0.045 µM and 0.095 µM.
As for `COc1ccc(C(=O)Cc2c(Cl)cncc2Cl)c2c1OC1(CCS(=O)(=O)CC1)O2` [Compound 112, 2-(3,5-Dichloropyridine-4-yl)-1-(7-methoxy-2′,3′,5′,6′-tetrahydro-spiro[1,3-benzodioxole-2,4′-(4H)-thiopyran-1,1′-dioxide]-4-yl)ethanone], the concentration for half-maximal inhibition (IC50) in assay [1] (setting [3]) worked out at 0.029 µM; in assay [2] it was 0.034 µM.
In the same order, the values of `COc1ccc(C(=O)Cc2c(Cl)c[n+]([O-])cc2Cl)c2c1OCC1(CO2)CS(=O)(=O)C1` [Compound 125, 2-(3,5-Dichloropyridin-1-oxido-4-yl)-1-{9-methoxy-spiro[2H-1,5-benzodioxepin-3(4H),3′-thietane-1′,1′-dioxide]-6-yl}ethanone] are 0.2 µM and 0.135 µM.
As to `COc1ccc(C(=O)Cc2c(Cl)c[n+]([O-])cc2Cl)c2c1OCC1(COCOC1)CO2` [Compound 131, 2-(3,5-Dichloro-1-oxido-pyridine-4-yl)-1-{9-methoxy-spiro[2H-1,5-benzodioxepin-3(4H),5′-[1,3]dioxane]-6-yl}ethanone], the IC50 in assay [1] (setting [3]) worked out at 0.043 µM; in assay [2], 0.016 µM.
For `COc1ccc(C(=O)Cc2nccnc2Br)c2c1OC1(CCSCC1)O2` [Compound 115], the results for the half-inhibitory concentration (IC50) in assay [1] (setting [3]) and in assay [2] were 1.41 µM and 0.471 µM, respectively.
For `COc1ccc(C(=O)Cc2c(Cl)cncc2Cl)c2c1OCC1(CCOCC1)CO2` [Compound 127, 2-(3,5-Dichloropyridin-4-yl)-1-{9-methoxy-spiro[2H-1,5-benzodioxepin-3(4H),4′-tetrahydropyran]-6-yl}ethanone] the same measures were 0.022 µM and 0.027 µM.
With `COc1ccc(C(=O)Cc2c(Cl)cncc2Cl)c2c1OC1(CC[S+]([O-])CC1)O2` (stereo not shown) [Compound 111, 2-(3,5-Dichloropyridine-4-yl)-1-(7-methoxy-2′,3′,5′,6′-tetrahydro-spiro[1,3-benzodioxole-2,4′-(4H)-thiopyran 1′-oxide]-4-yl)ethanone], the results for the IC50 in assay [1] (setting [3]) and in assay [2] were 0.018 µM and 0.019 µM, respectively.
With `COC(=O)N1CCC2(CC1)Oc1c(OC)ccc(C(=O)Cc3c(Cl)cncc3Cl)c1O2` [Compound 106, 2-(3,5-Dichloropyridine-4-yl)-1-(7-methoxy-1′-[methoxycarbonyl]-spiro[1,3-benzodioxole-2,4′-piperidine]-4-yl)ethanone], the IC50 amounted to 0.127 µM in assay [1] and 0.158 µM in assay [2].
`COc1ccc(C(=O)Cc2ccncc2)c2c1OC1(CCSCC1)O2` [Compound 117, 2-(-pyridin-4-yl-)-1-(7-methoxy-2′,3′,5′,6′-tetrahydro-spiro[1,3-benzo-dioxole-2,4′-(4H)-thiopyran]-4-yl)ethanone]: the values for the IC50 in assay [1] (setting [3]) and in assay [2] were 0.207 µM and 0.286 µM, respectively.
For `COc1ccc(C(=O)Cc2c(Cl)cncc2Cl)c2c1OC1(CCOCC1)O2` [Compound 101, 2-(3,5-Dichloropyridine-4-yl)-1-(7-methoxy-2′,3′,5′,6′-tetrahydro-spiro[1,3-benzodioxole-2,4′-(4H)-pyran]-4-yl)ethanone] the same measures were 0.026 µM and 0.028 µM.
In the same order, the values of `COc1ccc(C(=O)Cc2ccnc3ccccc23)c2c1OC1(CCSCC1)O2` [Compound 118, 2-(quinolin-4-yl-)-1-(7-methoxy-2′,3′,5′,6′-tetrahydro-spiro[1,3-benzo-dioxole-2,4′-(4H)-thiopyran]-4-yl)ethanone] are 1.8 µM and 5.52 µM.
In the case of `COc1ccc(C(=O)Cc2c(Cl)cncc2Cl)c2c1OC1(CCSCC1)O2` [Compound 110, 2-(3,5-Dichloropyridine-4-yl)-1-(7-methoxy-2′,3′,5′,6′-tetrahydro-spiro[1,3-benzodioxole-2,4′-(4H)-thiopyran]-4-yl)ethanone], the results for the half-maximal inhibitory concentration (IC50) in assay [1] (setting [3]) and in assay [2] were 0.011 µM and 0.017 µM, respectively.
Turning to `COc1ccc(C(=O)Nc2c(Cl)cncc2Cl)c2c1OC1(CCOCC1)O2` [Compound 102, N-(3,5-Dichloropyridine-4-yl)-7-methoxy-2′,3′,5′,6′-tetrahydro-spiro[1,3-benzodioxole-2,4′-(4H)-pyran]-4-carboxamide], the values for the IC50 in assay [1] (setting [3]) and in assay [2] were 0.041 µM and 0.088 µM, respectively.
In the same order, the values of `COc1ccc(C(=O)Cc2c(Cl)c[n+]([O-])cc2Cl)c2c1OC1(CCS(=O)(=O)CC1)O2` [Compound 113, 2-(3,5-Dichloro-1-oxido-pyridine-4-yl)-1-(7-methoxy-2′,3′,5′,6′-tetrahydro-spiro[1,3-benzodioxole-2,4′-(4H)-thiopyran-1′,1′-dioxide]-4-yl)ethanone] are 0.053 µM and 0.082 µM.
In the same order, the values of `COc1ccc(C(=O)Cc2c(Cl)cncc2Cl)c2c1OC1(CCSC1)O2` (stereo not shown) [Compound 104, 2-(3,5-Dichloropyridine-4-yl)-1-(7-methoxy-4′,5′-dihydro-spiro[1,3-benzo-dioxole-2,3′-(2H)-thiophen]-4-yl)ethanone] are 0.01 µM and 0.044 µM.
For `COc1ccc(C(=O)Cc2c(Cl)cncc2Cl)c2c1OCC1(COCOC1)CO2` [Compound 130, 2-(3,5-Dichloropyridin-4-yl)-1-{9-methoxy-spiro[2H-1,5-benzodioxepin-3(4H),5′-[1,3]dioxane]-6-yl}ethanone] the same measures were 0.04 µM and 0.05 µM.

For the origin of these results see patent publication US8338431B2, “Phosphodiesterase inhibitors” (Leo Pharma A/S, priority 2007, dated 2012).
